Reference: patent US20250066864A1, “METHODS FOR IDENTIFYING ADAR1 INHIBITORS, AND COMPOSITIONS AND METHODS OF USE IN TREATING CANCER” (The Wistar Institute of Anatomy and Biology, priority 2021, published 2025)
pIC50: −log10 of the molar value. Like-named read-outs stand apart in the source and are kept apart here.

Target: T1, ADAR1p110 (Homo sapiens, UniProt P55265)
T1 construct: HAT (N); FLAG (alternative preparation, not on the same molecule as HAT) (N); made in house; host or cells: Sf9 insect cells, baculovirus
T1 sequence (P55265 1-931 isoform P55265-5): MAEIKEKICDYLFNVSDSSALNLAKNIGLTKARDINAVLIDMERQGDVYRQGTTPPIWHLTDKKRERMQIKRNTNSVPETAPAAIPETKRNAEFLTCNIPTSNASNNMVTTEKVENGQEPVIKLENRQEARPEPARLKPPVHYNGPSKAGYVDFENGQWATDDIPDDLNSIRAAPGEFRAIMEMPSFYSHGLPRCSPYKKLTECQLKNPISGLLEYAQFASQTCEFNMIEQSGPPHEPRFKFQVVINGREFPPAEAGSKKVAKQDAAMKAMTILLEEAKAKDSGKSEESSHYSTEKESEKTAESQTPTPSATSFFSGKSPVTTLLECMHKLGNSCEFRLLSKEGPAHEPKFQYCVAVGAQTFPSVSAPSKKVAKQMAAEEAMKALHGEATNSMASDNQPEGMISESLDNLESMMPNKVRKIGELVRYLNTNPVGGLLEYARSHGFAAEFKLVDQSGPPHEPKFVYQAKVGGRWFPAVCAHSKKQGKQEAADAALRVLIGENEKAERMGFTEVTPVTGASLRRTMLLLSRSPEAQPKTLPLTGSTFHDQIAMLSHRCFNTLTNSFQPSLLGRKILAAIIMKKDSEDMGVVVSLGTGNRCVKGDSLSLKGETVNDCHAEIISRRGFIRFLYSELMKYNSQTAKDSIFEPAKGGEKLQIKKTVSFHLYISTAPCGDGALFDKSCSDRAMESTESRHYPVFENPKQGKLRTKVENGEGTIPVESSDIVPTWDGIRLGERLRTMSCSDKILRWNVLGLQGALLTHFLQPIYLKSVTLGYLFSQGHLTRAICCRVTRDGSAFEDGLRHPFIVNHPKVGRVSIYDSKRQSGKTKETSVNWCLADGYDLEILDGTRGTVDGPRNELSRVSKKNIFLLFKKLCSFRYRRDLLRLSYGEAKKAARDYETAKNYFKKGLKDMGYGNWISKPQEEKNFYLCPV
Assay: in vitro editing assay with recombinant ADAR1p110 and dsRNA or DNA:RNA substrates
Assay type: biochemical
Procedure: FIG. 26A-FIG. 26B show determination of IC50 by in vitro editing assay. In vitro editing assay using purified ADAR1p110 protein and two different substrates, matched (left) and mismatched (right) dsRNAs, was conducted in the presence of varying concentrations of compound #1 (FIG. 26A) or #13 (FIG. 26B) in order to estimate IC50 values for these compounds. In vitro editing was carried out using HAT-ADAR1p110 or HAT-ADAR2 recombinant protein (10 nM) and two different dsRNA substrates carrying a part of the CDK13 gene sequence (5 nM) at 37° C. for 2 hrs as described previously (12). Compounds were dissolved in 100% DMSO. The in vitro assay contained DMSO at final concentration of 16%.
The in vitro editing reaction mixture, containing 5 nM of telomere RNA:RNA duplex substrates and 75 nM of HAT-ADAR1p110-WT, FLAG-ADAR1p110-WT, or HA-ADAR1p110-EAA protein, was incubated at 37° C. for 2 h in in vitro editing buffer I (20 mM HEPES-KOH pH 7.5, 100 mM NaCl, 0.01% NP-40, 5% glycerol, 1 mM DTT). For editing of RNA:DNA hybrid substrates, in vitro editing buffer II (20 mM HEPES-KOH pH 7.5, 20 mM NaCl, 0.01% NP-40, 5% glycerol, 1 mM DTT) was used. Edited RNA or DNA strands were purified using Dynabeads MyOne Streptavidin C1 (Thermo Fisher Scientific). To remove opposite RNA or DNA strands, rNase H (NEB) or TURBO dNase (Thermo Fisher Scientific) was used, respectively. For sequencing of edited substrates, reverse transcription-PCR was carried out for RNA strands, while PCR was carried out for DNA strands. RT reactions were carried out using SuperScript III Reverse Transcriptase (Thermo Fisher Scientific), and PCR reactions were performed using Platinum Taq DNA polymerase (Thermo Fisher Scientific). PCR products were sequenced using a specific sequencing primer, and the ratio of A and G peaks in the chromatograms were analyzed by CodonCode Aligner (CodonCode Corporation).
The 54 compounds identified in the high-throughput screen were further tested in the in vitro editing assay described in Examples 1 and 2. The in vitro editing reaction mixture, containing 5 nM of telomere RNA:RNA duplex substrates and 75 nM of HAT-ADAR1p110-WT, FLAG-ADAR1p110-WT, or HA-ADAR1p110-EAA protein, was incubated at 37° C. for 2 h in in vitro editing buffer I (20 mM HEPES-KOH pH 7.5, 100 mM NaCl, 0.01% NP-40, 5% glycerol, 1 mM DTT) with 10 microM test compound. For editing of RNA:DNA hybrid substrates, in vitro editing buffer II (20 mM HEPES-KOH pH 7.5, 20 mM NaCl, 0.01% NP-40, 5% glycerol, 1 mM DTT) was used. Edited RNA or DNA strands were purified using Dynabeads MyOne Streptavidin C1 (Thermo Fisher Scientific). To remove opposite RNA or DNA strands, Rnase H (NEB) or TuRBO Dnase (Thermo Fisher Scientific) was used, respectively. For sequencing of edited substrates, reverse transcription-PCR was carried out for RNA strands, while PCR was carried out for DNA strands. RT reactions were carried out using SuperScript III Reverse Transcriptase (Thermo Fisher Scientific), and PCR reactions were performed using Platinum Taq DNA polymerase (Thermo Fisher Scientific). PCR products were sequenced using a specific sequencing primer, and the ratio of A and G peaks in the chromatograms were analyzed by CodonCode Aligner (CodonCode Corporation).

pIC50 (DNA:RNA mismatched hybrid substrate, read-out: IC50 estimated by in vitro editing assay, DNA:mmRNA): 4.00 to 4.52
pIC50 (dsRNAs (matched, mismatched) and DNA:RNA hybrids, read-out: IC50 values for ADAR1p110): 4.40 to 5.15
pIC50 (matched dsRNA substrate, read-out: IC50 estimated by in vitro editing assay, RNA:RNA): 5.52
pIC50 (mismatched dsRNA substrate, adenosine position 2, read-out: IC50 estimated by in vitro editing assay, RNA:mmRNA, Position 2): 4.68
pIC50 (mismatched dsRNA substrate, adenosine position 5, read-out: IC50 estimated by in vitro editing assay, RNA:mmRNA, Position 5): 5.09
pIC50 (mismatched dsRNA substrate, adenosine position 6, read-out: IC50 estimated by in vitro editing assay, RNA:mmRNA, Position 6): 5.42
SMILES: N#Cc1ccc(NC(=O)c2sc3ccccc3c2Cl)cc1 [Compound #13, 3-chloro-N-(4-cyanophenyl)-1-benzothiophene-2-carboxamide]
inhibition of editing of A:U matched dsRNA (matched dsRNA substrate, FIG. 25C, 10 microM test compound): preferentially inhibited matched adenosines
